Results published in publication PMC5286506 (Scientific Reports, 2017).
pIC50: −log10 of the molar value. Where two headings read alike, the source gives them in different places.

Experiments:
[1] = system: HIV-1 subtype B and C isolates (HIV-1AMBR5N, HIV-1FBR5N, HIV-1SLR5N, HIV-1ARR5X4, HIV-1CSBX4); test: Patient-derived HIV-1 isolates in activated PBMCs, p24 ELISA on day 7; assay type: cell-based; settings: 1 μM M48U1 (five isolates) or 5 μM tenofovir (three isolates from naïve patients) in 0.25% HEC; p < 0.05
Method: (§1) Mock-infected PBMCs were used as the negative control.
(§2) Figure 2 M48U1 in 0.25% HEC and tenofovir in 0.25% HEC each inhibited several laboratory strains and patient-derived HIV-1 isolates. Treatment with either 1 μM M48U1/0.25% (A) or 5 μM tenofovir/0.25% HEC (B) inhibited the replication of all tested laboratory and patient-derived strains. The HIV-1 strain tropism was determined with a sequencing analysis for the patient-derived strains. The combination of the two HIV-1 drugs inhibited HIV-1 replication independent of the HIV-1 strain tropism. HIV-1 replication was monitored by the HIV-1 p24 ELISA assay using cell culture supernatants obtained on day 7 post-infection. […] Three experiments in triplicate were performed. Analysis of antiretroviral activity of 1 μM M48U1 in 0.25% HEC (C) or 5 μM tenofovir in 0.25% HEC (D) performed in TZM-bl cells infected with pREJO.c/2864 and pTHRO.c/2626 T/F IMCs. […] Each sample was performed in triplicate and was repeated in three independent experiments.

[2] = MTT tissue viability in the EpiVaginal tissue model; assay type: cell-based; settings: human, EpiVaginal tissue model (cervicovaginal cultures), 20 μM tenofovir and/or 6.7 μM M48U1 in 0.25% HEC
Method: (§3) At the end of the incubation at 37 °C, the hydrogel was discarded and the cervicovaginal cultures were washed with PBS to remove any residual hydrogel. The cervicovaginal cultures were analyzed using the MTT kit protocol (MatTek Corporation). Cell cultures incubated with sterile distilled water were employed as a negative control. Triton X-100 (1%)-treated cultures were used as the positive control. The LDH cytotoxicity detection kit (TaKaRa Bio Inc, Japan) was used to detect LDH release from the tissues according to the manufacturer’s protocols. […] After incubation, the concentration of IL-1α in the culture medium was measured using the IL-1α ELISA Kit, according to the manufacturer’s instructions (Bender Medsystem, Wien, Austria). The concentration of IL-1α was calculated by interpolation from a standard calibration curve.

HSV-2 = system: HSV-2; design: method as in PMID 20643915, PMID 22018238, PMID 20709216; settings: CAPRISA 004 trial; cited from earlier work
X4-tropic HIV-1IIIb = test: HIV-1IIIb infection of activated PBMCs, HIV-1 gag p24 ELISA on day 7; assay type: cell-based
Method: as §1
(§4) The antiviral activity of each drug, M48U1 and tenofovir, formulated in 0.25% HEC hydrogel was determined in an activated PBMC model. […] This mixture was added to PBMCs activated with IL-2 and PHA for a two-hour incubation at 37 °C. To evaluate the antiviral effect of M48U1, the level of HIV-1 gag p24 protein in the culture supernatant was determined at seven days post-infection using an ELISA. A significant decrease (p < 0.05; Mann Whitney test) in the HIV-1 p24 level was found (Fig. 1).
(§5) Figure 1 M48U1 and tenofovir formulated in 0.25% HEC each inhibited the replication of both R5-tropic HIV-1BaL and X4-tropic HIV-1IIIb in activated PBMCs. […] After this incubation, these solutions were used to resuspend activated PBMCs for 2 hours at 37 °C. HIV-1 replication was monitored by a HIV-1 p24 ELISA assay on the cell culture supernatants performed on day 7 post-infection. […] Three experiments in triplicate were performed.

EpiVaginal tissue model = settings: human, 20 μM
Method: as §3

[3] = system: HIV-1BaL, HIV-1IIIb, HIV-1ADA, HIV-1RU132, HIV-1ARV-2, HIV-1CBL4; test: Laboratory HIV-1 strains in activated PBMCs, p24 ELISA on day 7; assay type: cell-based; settings: 1 μM M48U1 or 5 μM tenofovir in 0.25% HEC; p < 0.05
Method: as §1, §2

in vitro = settings: human, activated PBMCs
pREJO.c/2864 T/F IMC = test: T/F IMC infection of TZM-bl cells, luciferase readout; assay type: cell-based, HIV-1; settings: pREJO.c/2864, TZM-bl cells
Method: (§6) TZM-bl cells (1 × 10^4/well in a 100 μL volume) in 10% D-MEM growth medium containing DEAE-dextran (Sigma) at a final concentration of 7.5 μg/mL were then added to the plate. Assay controls included replicate wells of TZM-bl cells alone in HEC 0.25% (cell control) and TZM-bl cells with virus (virus control). Following 72 hours of incubation at 37 °C, 150 μL of culture medium were removed from each well and replaced with 100 μL of Bright-Glo luciferase reagent (Promega). After 2-minutes of incubation, 150 μL of the cell lysate were transferred to a 96-well white solid plate and luminescence was measured using a Victor Light 2030 luminometer (Perkin Elmer). The percentage of infection for each T/F strain was calculated by comparing the relative luminescence units (RLU) of the virus control wells after subtraction of the cell control RLU[44].
(§7) Figure 2 M48U1 in 0.25% HEC and tenofovir in 0.25% HEC each inhibited several laboratory strains and patient-derived HIV-1 isolates. Treatment with either 1 μM M48U1/0.25% (A) or 5 μM tenofovir/0.25% HEC (B) inhibited the replication of all tested laboratory and patient-derived strains. The HIV-1 strain tropism was determined with a sequencing analysis for the patient-derived strains. […] HIV-1 replication was monitored by the HIV-1 p24 ELISA assay using cell culture supernatants obtained on day 7 post-infection. […]

pTHRO.c/2626 T/F IMC = test: as above; assay type: cell-based, HIV-1; settings: pTHRO.c/2626, TZM-bl cells
Method: as §6, §7

HIV-1BaL = test: HIV-1BaL-infected cervicovaginal histoculture (EpiVaginal), proviral DNA qPCR; assay type: cell-based; settings: day 4 post-infection, vs HEC-treated infected samples
Method: The EpiVaginal Tissue Model (VLC-100FT; MatTek Corporation, Ashland, MA, USA) was maintained in a 24-well plate according to the manufacturer’s instructions. […] Subsequently, the wells were challenged with HIV-1BaL (25 ng p24/tissue well) for 24 hours. Mock-infected 0.25% HEC-treated wells were used as negative control. The apical surface of each tissue was washed twice with PBS after incubation with HIV-1BaL and the same formulations were added on day 1 for 24 hours. The underlying media was changed every day, and cervicovaginal tissues were harvested on day 4 post-infection.
Total DNA was extracted and purified from the tissues using the QIAamp DNA Mini Kit (Qiagen, Hilden, Germany). Proviral DNA was quantified by real-time quantitative PCR assay using the HIV-1 DNA qPCR kit (Diatheva, Fano, Italy) based on SYBR Green chemistry as indicated by the manufacturer. […] Total DNA amount was determined by spectrophotometry. The amplification was carried out as follows: an initial cycle of denaturation step at 95 °C for 15 minutes, followed by 10 cycles of denaturation at 95 °C for 15 seconds and annealing/extension at 68 °C for 35 seconds, and a final 35 cycles of denaturation at 95 °C for 15 seconds and annealing/extension with fluorescence acquisition at 68 °C for 35 seconds. […]

R5-tropic HIV-1BaL = test: HIV-1BaL infection of activated PBMCs, HIV-1 gag p24 ELISA on day 7; assay type: cell-based
Method: as §1, §4, §5

[4] = 1 μM M48U1 or 5 μM tenofovir in 0.25% HEC
[5] = 6.7 μM M48U1 or 20 μM tenofovir in 0.25% HEC

C[C@H](Cn1cnc2c(N)ncnc21)OCP(=O)(O)O [tenofovir]
infection of PBMCs with patient-derived HIV-1 subtype B and C isolates [1]: inhibited viral replication in all three cases
viability at 1 h, 20 μM ([2]; 1 hour): 95%
viability at 4 h, 20 μM ([2]; 4 hours): 96%
viability at 18 h, 20 μM ([2]; 18 hours): 88%
viability at 96 h, 20 μM ([2]; 96 hours): 104%
decrease of HSV-2 infections (HSV-2): 51%
inhibition of HIV-1IIIb replication (X4-tropic HIV-1IIIb; [4]): over 90%
pIC50 (X4-tropic HIV-1IIIb; Human immunodeficiency virus 1, PBMC, 168 h, HIV-1IIIb, activated PBMCs, drug in 0.25% HEC, p24 day 7 post-infection): 5.97
LDH release (Abs) (EpiVaginal tissue model; 1 h): 0.207 ± 0.06 Abs
LDH release (Abs) (EpiVaginal tissue model; 4 h): 0.381 ± 0.05 Abs
LDH release (Abs) (EpiVaginal tissue model; 18 h): 0.922 ± 0.2 Abs
LDH release (Abs) (EpiVaginal tissue model; 96 h): 1.498 ± 0.13 Abs
replication of laboratory HIV-1 strains (p24 in cell supernatant) [3]: suppressed the replication of all HIV-1 strains tested
CC50 at 7 days (in vitro): > 20 µM
reduction in viral replication (pREJO.c/2864 T/F IMC; [4]): 86.8%
reduction in viral replication (pREJO.c/2864 T/F IMC; [5]): 95%
reduction in viral replication (pTHRO.c/2626 T/F IMC; [4]): 78%
reduction in viral replication (pTHRO.c/2626 T/F IMC; [5]): 93%
decrease in the amount of proviral HIV-1 DNA (folds of inhibition, mean) (HIV-1BaL; 0.67 μM M48U1, 2 μM tenofovir or both in 0.25% HEC): 11 fold
decrease in the amount of proviral HIV-1 DNA (folds of inhibition, mean) (HIV-1BaL; 6.7 μM M48U1, 20 μM tenofovir or both in 0.25% HEC): ~45 fold
inhibition of HIV-1BaL replication (R5-tropic HIV-1BaL; [4]): over 90%
pIC50 (R5-tropic HIV-1BaL; Human immunodeficiency virus 1, PBMC, 168 h, HIV-1BaL, activated PBMCs, drug in 0.25% HEC, p24 day 7 post-infection): 5.91
